Laboratory results reported in PubChem BioAssay AID256 (DTP/NCI, 2004).
Values joined by “and” are separate entries in the source; they are usually repeats but may differ in a detail not shown here. Identical values can stand only once. Toxic doses and inconclusive results are not listed. The calls were made as follows: active = survival T/C of 150% or more; inactive = T/C below 125% in these data.

Test system: CD2F1 mice, L1210 leukemia ip, survival T/C
Assay: NCI In Vivo Anticancer Drug Screen. Data for tumor model L1210 Leukemia (intraperitoneal) in CD2F1 (CDF1) mice
Conditions: higher = longer survival
Method in brief: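 Tumor-bearing mice (transplanted tumor) were split into treated and vehicle control groups, and the measured endpoint of each treated group was divided by that of its vehicle controls.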

[1] = endpoint: mean survival time, dose: 100.0 mg/kg/injection, schedule: Q04DX003 (ip), vehicle: Klucel (hydroxypropylcellulose) (HPC)
[2] = endpoint: mean survival time, dose: 200.0 mg/kg/injection, schedule: Q04DX003 (ip), vehicle: Klucel (hydroxypropylcellulose) (HPC)
[3] = endpoint: mean survival time, dose: 100.0 mg/kg/injection, schedule: Q04DX003 (ip), vehicle: saline with Tween-80
[4] = endpoint: mean survival time, dose: 200.0 mg/kg/injection, schedule: Q04DX003 (ip), vehicle: saline with Tween-80
[5] = endpoint: mean survival time, dose: 50.0 mg/kg/injection, schedule: Q01DX009 (ip), vehicle: saline with Tween-80
[6] = endpoint: mean survival time, dose: 100.0 mg/kg/injection, schedule: Q01DX001 (ip), vehicle: saline with Tween-80
[7] = endpoint: mean survival time, dose: 100.0 mg/kg/injection, schedule: Q01DX009 (ip), vehicle: saline with Tween-80
[8] = endpoint: mean survival time, dose: 200.0 mg/kg/injection, schedule: Q01DX001 (ip), vehicle: saline with Tween-80
[9] = endpoint: mean survival time, dose: 200.0 mg/kg/injection, schedule: Q01DX009 (ip), vehicle: saline with Tween-80
[10] = endpoint: mean survival time, dose: 400.0 mg/kg/injection, schedule: Q01DX001 (ip), vehicle: saline with Tween-80
[11] = endpoint: mean survival time, dose: 400.0 mg/kg/injection, schedule: Q04DX003 (ip), vehicle: saline with Tween-80

Measured: T/C

CC1=C(N2CC2C)C(=O)c2c(COC(N)=O)c3n(c2C1=O)CC1NC31 (centres undefined)
inactive: endpoint: mean survival time, dose: 2.5 mg/kg/injection, schedule: Q01DX001 (ip), vehicle: distilled water + Tween-80 111 % of control | endpoint: mean survival time, dose: 5.0 mg/kg/injection, schedule: Q01DX001 (ip), vehicle: distilled water + Tween-80 101 % of control | endpoint: mean survival time, dose: 10.0 mg/kg/injection, schedule: Q01DX001 (ip), vehicle: distilled water + Tween-80 111 % of control | endpoint: mean survival time, dose: 20.0 mg/kg/injection, schedule: Q01DX001 (ip), vehicle: distilled water + Tween-80 122 % of control

COc1ccc(NC(=O)Nc2cc(C)on2)c(Cl)c1
inactive: endpoint: mean survival time, dose: 50.0 mg/kg/injection, schedule: Q01DX009 (ip), vehicle: Klucel (hydroxypropylcellulose) (HPC) 91 % of control | endpoint: mean survival time, dose: 100.0 mg/kg/injection, schedule: Q01DX009 (ip), vehicle: Klucel (hydroxypropylcellulose) (HPC) 95 % of control | [1] 110 % of control | endpoint: mean survival time, dose: 200.0 mg/kg/injection, schedule: Q01DX009 (ip), vehicle: Klucel (hydroxypropylcellulose) (HPC) 98 % of control | [2] 106 % of control | endpoint: mean survival time, dose: 400.0 mg/kg/injection, schedule: Q04DX003 (ip), vehicle: Klucel (hydroxypropylcellulose) (HPC) 106 % of control

Brc1cccc(-n2ccnc2)c1
inactive: [3] 102 % of control | [4] 112 % of control

Cc1ccc(C(=O)OCCN2CCN(c3ccccc3)CC2)c([N+](=O)[O-])c1OCc1ccccc1
inactive: endpoint: mean survival time, dose: 100.0 mg/kg/injection, schedule: Q04DX002 (ip), vehicle: other 98 % of control | endpoint: mean survival time, dose: 200.0 mg/kg/injection, schedule: Q04DX002 (ip), vehicle: other 91 % of control | endpoint: mean survival time, dose: 400.0 mg/kg/injection, schedule: Q04DX002 (ip), vehicle: other 91 % of control

CN(C)c1nc(N)nc(-c2ccncc2)n1
inactive: endpoint: mean survival time, dose: 12.0 mg/kg/injection, schedule: Q04DX002 (ip), vehicle: saline 100 % of control | endpoint: mean survival time, dose: 24.0 mg/kg/injection, schedule: Q04DX002 (ip), vehicle: saline 96 % of control | endpoint: mean survival time, dose: 48.0 mg/kg/injection, schedule: Q04DX002 (ip), vehicle: saline 92 % of control

C/C(=N/O)c1cc(CN(C)C)oc1C
inactive: [5] 92 % of control | [6] 113 % of control | [7] 90 % of control | [8] 101 % of control | [9] 91 % of control

CSc1ccc(OC(=O)Nc2ccc(C)cc2C)cc1C
inactive: endpoint: mean survival time, dose: 12.5 mg/kg/injection, schedule: Q01DX009 (ip), vehicle: saline with Tween-80 95 % of control | endpoint: mean survival time, dose: 25.0 mg/kg/injection, schedule: Q01DX009 (ip), vehicle: saline with Tween-80 91 % of control | [5] 87 % of control and 89 % of control | [9] 93 % of control

CCN(CC)C(=O)[S-].CCN(CC)C(=O)[S-].[Ni+2]
inactive: [6] 94 % of control | [8] 98 % of control | [10] 102 % of control

OCCNCc1ccc(OCc2ccccc2)c(OCc2ccccc2)c1
inactive: endpoint: median survival time, dose: 50.0 mg/kg/injection, schedule: Q04DX003 (ip), vehicle: saline with Tween-80 90 % of control | endpoint: median survival time, dose: 100.0 mg/kg/injection, schedule: Q04DX003 (ip), vehicle: saline with Tween-80 90 % of control

CC1CCC(C(C)C)C(OC(=O)N/N=C/N(C)C)C1 (centres undefined)
inactive: endpoint: mean survival time, dose: 100.0 mg/kg/injection, schedule: Q01DX009 (ip), vehicle: other 95 % of control | endpoint: mean survival time, dose: 200.0 mg/kg/injection, schedule: Q01DX009 (ip), vehicle: other 119 % of control

CCOC(=O)CCC1(CCC(=O)OCC)c2ccccc2-c2ccccc21
inactive: endpoint: mean survival time, dose: 100.0 mg/kg/injection, schedule: Q01DX001 (ip), vehicle: Klucel (hydroxypropylcellulose) (HPC) 96 % of control | endpoint: mean survival time, dose: 200.0 mg/kg/injection, schedule: Q01DX001 (ip), vehicle: Klucel (hydroxypropylcellulose) (HPC) 104 % of control | endpoint: mean survival time, dose: 400.0 mg/kg/injection, schedule: Q01DX001 (ip), vehicle: Klucel (hydroxypropylcellulose) (HPC) 104 % of control

O=C(CCN1CCCCC1)c1ccccc1
inactive: endpoint: mean survival time, dose: 5.0 mg/kg/injection, schedule: Q01DX009 (ip), vehicle: saline 115 % of control | endpoint: mean survival time, dose: 10.0 mg/kg/injection, schedule: Q01DX009 (ip), vehicle: saline 114 % of control | endpoint: mean survival time, dose: 20.0 mg/kg/injection, schedule: Q01DX009 (ip), vehicle: saline 102 % of control

CCCCCCOc1ccc(/C=N\N=C\c2ccc(OCCCCCC)cc2)cc1
inactive: [3] 91 % of control | [4] 89 % of control | [11] 91 % of control

CC(=O)Nc1ccc(C(C)=O)cc1
inactive: [3] 108 % of control | [4] 106 % of control | [11] 93 % of control

N=c1nc(N)nc(N)n1-c1ccccc1
inactive: [5] 98 % of control | [7] 102 % of control | [9] 102 % of control

N#CC(C#N)=Cc1cccc2ccccc12
inactive: endpoint: mean survival time, dose: 50.0 mg/kg/injection, schedule: Q04DX003 (ip), vehicle: Klucel (hydroxypropylcellulose) (HPC) 98 % of control | [1] 103 % of control | [2] 101 % of control

Cc1cc(NCCCCCCCCNc2cc(C)nc3cc(N(C)C)ccc23)c2ccc(N(C)C)cc2n1
inactive: endpoint: median survival time, dose: 1.57 mg/kg/injection, schedule: Q01DX009 (ip), vehicle: distilled water + Tween-80 + alcohol 108 % of control | endpoint: median survival time, dose: 3.12 mg/kg/injection, schedule: Q01DX009 (ip), vehicle: distilled water + Tween-80 + alcohol 118 % of control | endpoint: median survival time, dose: 3.12 mg/kg/injection, schedule: Q01DX009 (ip), vehicle: distilled water + Tween-80 115 % of control | endpoint: median survival time, dose: 6.25 mg/kg/injection, schedule: Q01DX009 (ip), vehicle: distilled water + Tween-80 123 % of control | endpoint: median survival time, dose: 12.5 mg/kg/injection, schedule: Q01DX009 (ip), vehicle: distilled water + Tween-80 123 % of control

O=c1oc(/C=C/c2ccccc2)nc2cc(Cl)ccc12
inactive: [3] 94 % of control | [4] 92 % of control | [11] 97 % of control

CC(=O)C(C(C)=O)C1C=CC=CC=C1
inactive: [5] 100 % of control | [9] 94 % of control

O=[N+]([O-])O.S=C([SH2+])[n+]1ccccc1.S=C([SH2+])[n+]1ccccc1.[NH-]C1CCCCC1[NH-].[Pt+4]
inactive: endpoint: median survival time, dose: 3.12 mg/kg/injection, schedule: Q04DX003 (ip), vehicle: saline 101 % of control | endpoint: median survival time, dose: 6.25 mg/kg/injection, schedule: Q04DX003 (ip), vehicle: saline 109 % of control | endpoint: median survival time, dose: 12.5 mg/kg/injection, schedule: Q04DX003 (ip), vehicle: saline 100 % of control | endpoint: median survival time, dose: 25.0 mg/kg/injection, schedule: Q04DX003 (ip), vehicle: saline 90 % of control | endpoint: median survival time, dose: 50.0 mg/kg/injection, schedule: Q04DX003 (ip), vehicle: saline 95 % of control | endpoint: median survival time, dose: 100.0 mg/kg/injection, schedule: Q04DX003 (ip), vehicle: saline 106 % of control | endpoint: median survival time, dose: 200.0 mg/kg/injection, schedule: Q04DX003 (ip), vehicle: saline 109 % of control

CC(O)c1cc2ccccc2n1C (centres undefined)
inactive: [6] 98 % of control | [8] 103 % of control | [10] 101 % of control

CC(=O)N(c1c(-c2ccccc2)nc2ccccc2c1C(=O)O)C1CCCCC1
inactive: [7] 100 % of control | [3] 102 % of control | [9] 96 % of control | [4] 98 % of control | endpoint: mean survival time, dose: 400.0 mg/kg/injection, schedule: Q01DX009 (ip), vehicle: saline with Tween-80 90 % of control | [11] 90 % of control

OCCN1CCOCC1
inactive: endpoint: mean survival time, dose: 100.0 mg/kg/injection, schedule: Q01DX009 (ip), vehicle: saline 103 % of control | endpoint: mean survival time, dose: 100.0 mg/kg/injection, schedule: Q04DX003 (ip), vehicle: saline 98 % of control | endpoint: mean survival time, dose: 200.0 mg/kg/injection, schedule: Q01DX009 (ip), vehicle: saline 102 % of control | endpoint: mean survival time, dose: 200.0 mg/kg/injection, schedule: Q04DX003 (ip), vehicle: saline 95 % of control | endpoint: mean survival time, dose: 400.0 mg/kg/injection, schedule: Q01DX009 (ip), vehicle: saline 103 % of control | endpoint: mean survival time, dose: 400.0 mg/kg/injection, schedule: Q04DX003 (ip), vehicle: saline 97 % of control
